Test results taken from patent publication US7812022B2 (GlaxoSmithKline LLC, priority 2004, dated 2010).

What was measured:
ErbB2 or EGFR = molecular target: T1, ErbB2 or EGFR; assay: ErbB family substrate phosphorylation enzyme assay (HTRF), Method A or Method B; type: biochemical
T1 construct: enzymes purified from a baculovirus expression system; Reagent production was conducted essentially as described in Brignola, P. S., et al, (2002) J. Biol. Chem. 277(2): 1576-1585
Description: Compounds of the present invention were tested for EGFR, ErbB-2, and ErbB-4 protein tyrosine kinase inhibitory activity in substrate phosphorylation assays using enzymes purified from a baculovirus expression system. Reagent production was conducted essentially as described in Brignola, P. S., et al, (2002) J. Biol. Chem. 277(2): 1576-1585.
The method measures the ability of the isolated enzyme to catalyse the transfer of the gamma-phosphate from ATP onto the tyrosine residue of a biotinylated synthetic peptide referenced “Peptide C” in Brignola, P. S., et al, (2002) J. Biol. Chem. 277(2):1576-1585. The extent of tyrosine phosphorylation was measured using an anti-phosphotyrosine antibody, and quantified by homogenous time-resolved fluorescence (HTRF).
Reactions were performed in black 384-well polystyrene flat-bottom plates in a final volume of 20 ul. Assays were performed by adding 10 μl of each of the following solutions, substrate Mix and enzyme mix: The Substrate mix contained 100 mM 3-[N-morpholino]propanesulfonic acid (MOPS) (pH 7.5), 2 mM MnCl2, 20 μM ATP, 0.01% Tween-20, 0.1 mg/mL (BSA), 0.8 uM peptide substrate, and 1 mM dithiothreitol. The enzyme mix contained 100 mM MOPS (pH7.5); 0.01% Tween-20; 0.1 mg/mL BSA, and either 0.8 nM EGFR, 10 nM ErbB2, or 1 nM ErbB4
During the course of these studies, two separate methods have been used to measure the potency of compounds. In Method A, the substrate mix was added to the compound plates first, then the reaction was started by adding the enzyme mix. In Method B, the enzyme mix was added to the compound plates and the plates were incubated at 20° C. for 1 hour. The reactions were then started by adding the substrate mix.
After initiating the reaction with either method describe above, the reactions were allowed to proceed for 90 minutes at 20° C. The reactions were then terminated by the addition of 20 μl 100 mM EDTA to each well. 40 μl/well of HTRF detection mix were added to the assay plates. The final concentrations of the detection reagents were: 100 mM HEPES (pH7.5), 0.1 mg/mL BSA, 15 nM streptavidin-labeled allophycocyanin (PerkinElmer), and 1 nM europium-labeled anti-phosphotyrosine antibody (PerkinElmer). Assay plates were left unsealed and were counted in a Wallac Multilabel Counter 1420 (PerkinElmer).
Compounds under analysis were dissolved in Me2SO to 1.0 mM and serially diluted 1 to 3 with Me2SO through twelve dilutions. 1 μl of each concentration was transferred to the corresponding well of an assay plate. This creates a final compound concentration range from 0.00027 to 47.6 μM.
The data for dose responses were plotted as % Inhibition calculated with the data reduction formula 100*(1−(U1−C2)/(C1−C2)) versus concentration of compound where U is the unknown value, C1 is the average control value obtained for 4.76% DMSO, and C2 is the average control value obtained for 0.035 M EDTA. Data were fitted with a curve described by: y=((Vmax*x)/(K+x))+Y^2 where Vmax is the upper asymptote, Y2 is the Y intercept, and K is the IC50. The results for each compound were recorded as pIC50s, calculated as follows: pIC50=−Log 10(K)

[1] = system: BT474 and HN5 tumor cell lines; assay: Methylene blue growth inhibition assay (cellular Method A); type: cell-based, Human; conditions: Homo sapiens, BT-474, 72 h, 3 days, read-out: Activity (Method): growth inhibition IC50 class
Description: Human breast (BT474) and head and neck (HN5) were cultured in low glucose DMEM (Life Technologies 12320-032) containing 10% fetal bovine serum (FBS). Human colon tumor cells (Colo205) were cultured in DMEM (Invitrogen, 10564) containing 10% FBS. The SV40 transformed human mammary epithelial cell line HB4a was transfected with either human H-ras cDNA (HB4a r4.2) or the human c-ErbB2 cDNA (HB4a c5.2). The HB4a clones were cultured in RPMI containing 10% FBS, insulin (5 g/mL), hydrocortisone (5 g/mL), supplemented with the selection agent hygromycin B (50 g/mL). All lines were grown in a humidified incubator at 37° C. in 95% air, 5% CO2. Cells were harvested using trypsin/EDTA, counted using a haemocytometer, and plated in 100 microliters of the appropriate media, at the following densities, in a 96-well tissue culture plate (Falcon 3075): BT474 10,000 cells/well, HN5 3,000 cells/well. The next day, compounds were diluted in DMEM containing […] gentamicin, at twice the final required concentration, from 10 mM stock solutions in DMSO. 100 microliters/well of these dilutions were added to the 100 microliters of media currently on the cell plates. Medium containing 0.6% DMSO was added to control wells. Compounds diluted in DMEM were added to all cell lines. The final concentration of DMSO in all wells was 0.3%. Cells were returned to the incubator (37° C., 10% CO2) for 3 days. Medium was then removed by aspiration. Cell biomass was estimated by staining cells with 90 microliters per well methylene blue (Sigma M9140, 0.5% in 1:1 ethanol:water), and incubation at rt for at least 30 minutes. Stain was removed, and the plates rinsed by immersion in deionized water and air-dried. To release stain from the cells 100 microliters of solubilization solution was added (1% N-lauroyl sarcosine, Sodium salt, Sigma L5125, in PBS), and plates were shaken gently for about 30 minutes. Optical density at 620 nm was measured on a microplate reader. Percent inhibition of cell growth was calculated relative to vehicle treated control wells. Concentration of compound that inhibits 50% of control cell growth (IC50) was interpolated using nonlinear regression (Levenberg-Marquardt) and the equation, y=Vmax*(1−(x/(K+x)))+Y2, where “K” was equal to the IC50. Method B: Celltiter Glo® Growth Inhibition Assays

[2] = Method B: enzyme mix pre-incubated with compound 1 hour at 20° C., started with substrate mix
[3] = Method A: substrate mix added first, reaction started with enzyme mix

## O=C(Nc1cccc(-c2nn3ccccc3c2-c2ccnc(Nc3cccc(F)c3)n2)c1)c1ccc(Cl)nc1 [Example 74, 6-Chloro-N-[3-(3-{2-[(3-fluorophenyl)amino]-4-pyrimidinyl}pyrazolo[1,5-a]pyridin-2-yl)phenyl]-3-pyridinecarboxamide]
ErbB2 or EGFR; [2]
  Activity (Method): pIC50 class against ErbB2 or EGFR: ++ (B) (at least one pIC50 measurement greater than 6 against either ErbB2 or EGFR but no measurement greater than pIC50 of 7)
[1]
  IC50: 100 to 1000 nM

## O=C(Nc1cccc(-c2nn3ccccc3c2-c2ccnc(Nc3cccc(F)c3)n2)c1)c1ccsc1 [Example 81, N-[3-(3-{2-[(3-fluorophenyl)amino]-4-pyrimidinyl}pyrazolo[1,5-a]pyridin-2-yl)phenyl]-3-thiophenecarboxamide]
ErbB2 or EGFR; [2]
  Activity (Method): pIC50 class against ErbB2 or EGFR: ++ (B) (at least one pIC50 measurement greater than 6 against either ErbB2 or EGFR but no measurement greater than pIC50 of 7)
[1]
  IC50: 100 to 1000 nM

## Cc1ccsc1C(=O)Nc1cccc(-c2nn3ccccc3c2-c2ccnc(Nc3ccccc3)n2)c1 [Example 145, 3-Methyl-N-(3-{3-[2-(phenylamino)-4-pyrimidinyl]pyrazolo[1,5-a]pyridin-2-yl}phenyl)-2-thiophenecarboxamide]
ErbB2 or EGFR; [3]
  Activity (Method): pIC50 class against ErbB2 or EGFR: +++ (A) (at least one pIC50 measurement of greater than 7 against either ErbB2 or EGFR)
[1]
  IC50: < 100 nM

## O=C(Nc1cccc(-c2nn3ccccc3c2-c2ccnc(Nc3cccc(F)c3)n2)c1)c1ccc(F)cc1F [Example 19, 2,4-Difluoro-N-(3-{3-[2-(3-fluoro-phenylamino)-pyrimidin-4-yl]-pyrazolo[1,5-a]pyridin-2-yl}-phenyl)-benzamide]
ErbB2 or EGFR; [2]
  Activity (Method): pIC50 class against ErbB2 or EGFR: +++ (B) (at least one pIC50 measurement of greater than 7 against either ErbB2 or EGFR)
[1]
  IC50: 100 to 1000 nM

## O=C(Nc1cccc(-c2nn3ccccc3c2-c2ccnc(Nc3ccc(Cl)cc3)n2)c1)c1c(F)cccc1F [Example 92]
ErbB2 or EGFR; [3]
  Activity (Method): pIC50 class against ErbB2 or EGFR: ++ (A) (at least one pIC50 measurement greater than 6 against either ErbB2 or EGFR but no measurement greater than pIC50 of 7)
[1]
  IC50: 100 to 1000 nM

## Cn1cccc1C(=O)Nc1cccc(-c2nn3ccccc3c2-c2ccnc(Nc3ccccc3)n2)c1 [Example 149, N-{3-[3-(2-phenylamino-4-pyrimidinyl)-pyrazolo[1,5-b]pyridin-2-yl]phenyl}-1-methyl-1H-pyrrole-2-carboxamide]
ErbB2 or EGFR; [3]
  Activity (Method): pIC50 class against ErbB2 or EGFR: ++ (A) (at least one pIC50 measurement greater than 6 against either ErbB2 or EGFR but no measurement greater than pIC50 of 7)
[1]
  IC50: 100 to 1000 nM

## O=C(Nc1cccc(-c2nn3ccccc3c2-c2ccnc(Nc3ccc(Nc4ccccc4)cc3)n2)c1)c1c(F)cccc1F [Example 96]
ErbB2 or EGFR; [3]
  Activity (Method): pIC50 class against ErbB2 or EGFR: ++ (A) (at least one pIC50 measurement greater than 6 against either ErbB2 or EGFR but no measurement greater than pIC50 of 7)
[1]
  IC50: 100 to 1000 nM

## Nc1cccc(C(=O)Nc2cccc(-c3nn4ccccc4c3-c3ccnc(Nc4ccccc4)n3)c2)c1 [Example 143, 3-Amino-N-(3-{3-[2-(phenylamino)-4-pyrimidinyl]pyrazolo[1,5-a]pyridin-2-yl}phenyl)benzamide]
ErbB2 or EGFR; [3]
  Activity (Method): pIC50 class against ErbB2 or EGFR: +++ (A) (at least one pIC50 measurement of greater than 7 against either ErbB2 or EGFR)
[1]
  IC50: 100 to 1000 nM

## COc1ccc(Nc2nccc(-c3c(-c4cccc(NC(=O)c5c(F)cccc5F)c4)nn4c(C(F)(F)F)cccc34)n2)cc1F [Example 154, N-[3-(3-[2-{3-fluoro4-methoxyphenylamino]-4-pyrimidinyl}-7-trifluoropyrazolo[1,5-b]pyridin-2-yl)phenyl]-2,6-difluorobenzamide]
ErbB2 or EGFR; [3]
  Activity (Method): pIC50 class against ErbB2 or EGFR: ++ (A) (at least one pIC50 measurement greater than 6 against either ErbB2 or EGFR but no measurement greater than pIC50 of 7)
[1]
  IC50: 100 to 1000 nM

## S=C(Nc1cccc(-c2nn3ccccc3c2-c2ccnc(Nc3ccc4c(c3)OCCO4)n2)c1)c1ccccc1Cl [Example 8, 2-Chloro-N-(3-{3-[2-(2,3-dihydro-benzo[1,4]dioxin-6-ylamino)-pyrimidin-4-yl]-pyrazolo[1,5-a]pyridin-2-yl}-phenyl)-thiobenzamide]
ErbB2 or EGFR; [3]
  Activity (Method): pIC50 class against ErbB2 or EGFR: ++ (A) (at least one pIC50 measurement greater than 6 against either ErbB2 or EGFR but no measurement greater than pIC50 of 7)
[1]
  IC50: 100 to 1000 nM

## O=C(Nc1cccc(-c2nn3ccccc3c2-c2ccnc(Nc3cccc(N4CCCC4=O)c3)n2)c1)c1cc(F)ccc1F [Example 49, 2,5-Difluoro-N-{3-[3-(2-{[3-(2-oxo-1-pyrrolidinyl)phenyl]amino}-4-pyrimidinyl)pyrazolo[1,5-a]pyridin-2-yl]phenyl}benzamide]
ErbB2 or EGFR; [3]
  Activity (Method): pIC50 class against ErbB2 or EGFR: +++ (A) (at least one pIC50 measurement of greater than 7 against either ErbB2 or EGFR)
[1]
  IC50: 100 to 1000 nM

## CN1CCc2ccc(Nc3nccc(-c4c(-c5cccc(NC(=O)c6ccccc6)c5)nn5ccccc45)n3)cc2C1 [Example 63, N-[3-(3-{2-[(2-methyl-1,2,3,4-tetrahydro-7-isoquinolinyl)amino]-4-pyrimidinyl}pyrazolo[1,5-a]pyridin-2-yl)phenyl]benzamide]
ErbB2 or EGFR; [2]
  Activity (Method): pIC50 class against ErbB2 or EGFR: +++ (B) (at least one pIC50 measurement of greater than 7 against either ErbB2 or EGFR)
[1]
  IC50: < 100 nM

## O=C(Nc1cccc(-c2nn3c(C(F)(F)F)cccc3c2-c2ccnc(Nc3ccccc3)n2)c1)c1c(F)cccc1F [Example 152, N-[3-(3-{2-[Phenylamino]-4-pyrimidinyl}-7-trifluoropyrazolo[1,5-b]pyridin-2-yl)phenyl]-2,6-difluorobenzamide]
ErbB2 or EGFR; [2]
  Activity (Method): pIC50 class against ErbB2 or EGFR: ++ (B) (at least one pIC50 measurement greater than 6 against either ErbB2 or EGFR but no measurement greater than pIC50 of 7)
[1]
  IC50: 100 to 1000 nM

## CS(=O)(=O)Cc1ccc(Nc2nccc(-c3c(-c4cccc(NC(=O)c5cc(F)ccc5F)c4)nn4ccccc34)n2)cc1 [Example 53, 2,5-Difluoro-N-(3-{3-[2-({4-[(methylsulfonyl)methyl]-phenyl}amino)-4-pyrimidinyl]pyrazolo[1,5-a]pyridin-2-yl}phenyl)benzamide]
ErbB2 or EGFR; [3]
  Activity (Method): pIC50 class against ErbB2 or EGFR: ++ (A) (at least one pIC50 measurement greater than 6 against either ErbB2 or EGFR but no measurement greater than pIC50 of 7)
[1]
  IC50: 100 to 1000 nM
